This is an account of results in patent US8093226B2, “Cytostatic 7-deazapurine nucleosides” (Institute of Organic Chemistry and Biochemistry of the …, priority 2008, dated 2012).

What all share (type): cell-based
The subject of one experiment is Du145. The experiment can be described thus: Test A: Cytostatic Cell Culture Assay (GI50), Du145. The note with it: Homo sapiens, DU-145, 120 h; Du145 cells, 5 days, SRB; read-out: G150 Prostate Du145. The text has this:
(§1) Test A: Cytostatic Cell Culture Assay (GI50)
(§2) This assay is based on quantification of cell counts by a calorimetric detection of the cell associated proteins. The assay relies on the ability of sulforhodamine B (SRB) to bind to protein components of cells that have been fixed to tissue-culture plates by trichloroacetic acid (TCA). SRB is a bright-pink aminoxanthene dye with two sulfonic groups that bind to basic amino-acid residues under mild acidic conditions, and dissociate under basic conditions. As the binding of SRB is stoichiometric, the amount of dye extracted from stained cells is directly proportional to the cell mass.
(§3) Cell lines: All cell lines are obtained from ATCC (Manassas, Va.). Cultivation media containing Glutanax, and trypsin are purchased from Invitrogen (Carlsbad, Calif.). Doxorubicin, Clofarabine, TCA and SRB are from Sigma-Aldrich (St. Louis, Mo.). Gemcitabine is obtained from Moravek Biochemicals (Brea, Calif.)
(§4) • 1. Trypsinize the sub-confluent cells, count them, and adjust the cell concentrations according to the cell counts listed in Table 1. • 2. Distribute the cells into the 96-well plates in 150 μL of media. Incubate the plates overnight in humidified CO2 incubator at 37° C. • 3. Fix one plate of each cell line with TCA. Discard the cultivation media from the plates by flicking them gently and add 100 μL cold 10% (vol/vol) TCA to each well. Incubate the plates at 4 degree refrigerator for 1 hour. Discard TCA from the plates by flicking them gently. Rinse plates four times in a washing basin containing tap water. Store the plates at room temperature. These plates represent cell counts on day zero. • 4. Prepare a set of medium solutions containing various concentrations of tested compounds by making 5-fold serial dilutions in 96-well plate. Add 50 μL of the diluted compounds per well. Include controls with untreated cells and cells treated with doxorubicin, clofarabine and gemcitabine. • 5. Incubate the plates for 5 days at 37° C. • 6. Fix the plates with TCA. Discard the cultivation media from the plates by flicking them gently and add 100 μL cold 10% (vol/vol) TCA to each well. Incubate the plates at 4 degree refrigerator for 1 hour. Discard TCA from the plates by flicking them gently. Rinse plates four times in a washing basin containing tap water. • 7. Remove excess water by tapping the plates face down, gently on a paper towel. Allow the plates to air-dry at room temperature. • 8. Add 100 μL of 0.057% SRB solution in 1% (vol/vol) acetic acid to each well of the plates fixed with TCA on day zero and five. Leave at room temperature for 30 minutes. • 9. Flick the plates gently to discard SRB. Rinse the plates four times with 1% (vol/vol) Acetic Acid. • 10. Store the plates at 370 incubator to facilitate faster drying. • 11. Once the plates are completely dry, add 200 μL of 10 mM Tris base solution (pH 10.5) to each well. Leave at room temperature for 30 minutes for SRB to solubilize. • 12. Measure the OD at 500 nm in a microplate reader. • 13. Calculate the percentage of cell-growth inhibition using the next formula: % of control cell growth=100×(ODsample−mean ODday0)/(ODneg control−mean ODday0)
(§5) For GI50 determination, plot a dose-response curves between the compound concentration and percent of growth inhibition. GI50 values can be derived by fitting dose-response curves using sigmoidal dose response equation.

The next experiment deals with A549. The experiment can be described thus: Test A: Cytostatic Cell Culture Assay (GI50), A549. The note with it: Homo sapiens, 120 h; A549 cells, 5 days, SRB; read-out: G150 Lung A549.
Excerpt: as §1, §2, §3, §4, §5

Another experiment concerns PC3. Put plainly: Test A: Cytostatic Cell Culture Assay (GI50), PC3. The note with it: Homo sapiens, PC-3, 120 h; PC3 cells, 5 days, SRB; read-out: G150 Prostate PC3.
Excerpt: as §1, §2, §3, §4, §5

The subject of a further experiment is HCT15. Put plainly: Test A: Cytostatic Cell Culture Assay (GI50), HCT15. The note with it: Homo sapiens, HCT-15, 120 h; HCT15 cells, 5 days, SRB; read-out: G150 Colon HCT15.
Excerpt: as §1, §2, §3, §4, §5

The subject of a further experiment is NCIH23. Put plainly: Test A: Cytostatic Cell Culture Assay (GI50), NCIH23. As to conditions: Homo sapiens, NCI-H23, 120 h; NCIH23 cells, 5 days, SRB; read-out: G150 Lung NCIH23.
Excerpt: as §1, §2, §3, §4, §5

In another experiment the test system is Hs578. Put plainly: Test A: Cytostatic Cell Culture Assay (GI50), Hs578. As to conditions: 120 h; Hs578 cells, 5 days, SRB; read-out: G150 Breast Hs578.
Excerpt: as §1, §2, §3, §4, §5

Experiment [1] deals with Human T-lymphoid cell line CCRF-CEM. The experiment can be described thus: Cell cycle distribution in human T-lymphoid cells (propidium iodide, flow cytometry). The note with it: 72 hours; for Relative change in cell cycle phase compared to untreated control, G1 / Relative change in cell cycle phase compared to untreated control, G2/M / Relative change in cell cycle phase compared to untreated control, S: concentration corresponding to CC50, untreated control = 1. On the procedure:
Effects of the Compounds on Cell Cycle Distribution in Human T-Lymphoid Cells
Human T-lymphoid cell line CCRF-CEM is treated with tested compounds for 72 hours at the concentration corresponding to the CC50 value of each compound. At the end of incubation, cells are harvested by centrifugation, washed, and fixed in ethanol. Fixed cells are stained with propidium iodide in a buffer containing RNaseA and the cell cycle distribution analysis is performed by flow cytometry using BD FACSAria instrument. Data are processed using BD FACSDiva software v4.1 and presented as a percentage of analyzed cell population in Phase G1, S, and G2/M. Cell cycle distribution is determined in parallel for untreated and treated cells and relative change for each cell cycle phase is calculated.
The data represent changes in the frequency of each cell cycle phase in treated cells relative to untreated control (the relative fraction of each analyzed cell cycle phase in untreated control has the value of 1).
Primary data are shown in Table 3, with values representing the percentage distribution of each cell cycle phase in the total cell population.
For orientation: Flow cytometry measures light scatter and fluorescence of single cells or particles in a stream.

Another experiment has as its system HCT116. Put plainly: Test A: Cytostatic Cell Culture Assay (GI50), HCT116. As to conditions: Homo sapiens, HCT-116, 120 h; HCT116 cells, 5 days, SRB; read-out: G150 Colon HCT116.
Excerpt: as §1, §2, §3, §4, §5

As for `OC[C@H]1O[C@@H](n2cc(F)c3c(-c4ccco4)ncnc32)[C@H](O)[C@@H]1O` [Example 20, 5-Fluoro-4-(furan-2-yl)-7-(β-D-ribofuranosyl)-7H-pyrrolo[2,3-d]pyrimidine], the IC50 was found to be 5 nM in the experiment on Du145; 109 nM in the experiment on A549; 75 nM with PC3; 57 nM in the experiment on HCT15; 4.3 µM with NCIH23; 175 nM in the experiment on Hs578. Also, the IC50 with HCT116 turned out to be 39 nM. Further, the G1 % in experiment [1] (1.5 μM, replicate 1) is 22.32%; in experiment [1] (1.5 μM, replicate 2), 28.81%. For the same compound, the G2/M % came out at 30.19% in experiment [1] (1.5 μM, replicate 1) and 25.24% in experiment [1] (1.5 μM, replicate 2). In addition, the S % in experiment [1] (1.5 μM, replicate 1) came to 47.49%; in experiment [1] (1.5 μM, replicate 2), 45.95%. Moreover, in experiment [1], the “Relative change in cell cycle phase compared to untreated control, G1” value (shortened to “Relative change in cell cycle phase … G1”) is reported as 0.61. Moreover, the “Relative change in cell cycle phase compared to untreated control, G2/M” value (“Relative change in cell cycle phase … G2/M” below) in experiment [1] was found to be 2.00. Besides, the “Relative change in cell cycle phase compared to untreated control, S” value (“Relative change … to untreated control, S” below) in experiment [1] is reported as 1.06.
In the case of `OC[C@H]1O[C@@H](n2ccc3c(-c4cccs4)ncnc32)[C@H](O)[C@@H]1O` [Example 6, 7-(β-D-Ribofuranosyl)-4-(thiophen-2-yl)-7H-pyrrolo[2,3-d]pyrimidine], the IC50 was found to be 9 nM with Du145; 45 nM in the experiment on A549; 67 nM in the experiment with PC3; 78 nM in the experiment with HCT15; 4.1 µM in the experiment on NCIH23; 101 nM in the experiment with Hs578. In addition, in the experiment with HCT116, the IC50 stood at 49 nM. Further, the G1 % in experiment [1] (0.3 μM, replicate 1) was 30.82%; in experiment [1] (0.3 μM, replicate 2) it was 14.66%. In addition, the G2/M % in experiment [1] (0.3 μM, replicate 1) came out at 14.53%; in experiment [1] (0.3 μM, replicate 2), 22.05%. Moreover, the S % in experiment [1] (0.3 μM, replicate 1) turned out to be 54.65%; in experiment [1] (0.3 μM, replicate 2) it was 63.29%. Further, the “Relative change in cell cycle phase … G1” value in experiment [1] stood at 0.52. Moreover, in experiment [1], the “Relative change in cell cycle phase … G2/M” value came to 1.54. In addition, the “Relative change … to untreated control, S” value in experiment [1] was determined as 1.34.
With `OC[C@H]1O[C@@H](n2cc(F)c3c(-c4cccs4)ncnc32)[C@H](O)[C@@H]1O` [Example 21], the IC50 in the experiment on Du145 came to 9 nM; in the experiment on A549, 61 nM; in the experiment on PC3 it was 83 nM; in the experiment on HCT15, 18 nM; with NCIH23, 4.7 µM; with Hs578 it was 132 nM. Further, the IC50 in the experiment on HCT116 amounted to 9 nM. The G1 % in experiment [1] (0.3 μM, replicate 1) was 30.83%; in experiment [1] (0.3 μM, replicate 2) it was 32.73%. The G2/M % in experiment [1] (0.3 μM, replicate 1) amounted to 22.80%; in experiment [1] (0.3 μM, replicate 2) it was 23.53%. Besides, the S % in experiment [1] (0.3 μM, replicate 1) was 46.37%; in experiment [1] (0.3 μM, replicate 2) it was 43.74%. In experiment [1], the “Relative change in cell cycle phase … G1” value is given as 0.74. For the same compound, the “Relative change in cell cycle phase … G2/M” value in experiment [1] stood at 1.38. In addition, in experiment [1], the “Relative change … to untreated control, S” value is 1.12.
